The values that follow come from patent publication US11564923B2, “Compounds and pharmaceutical compositions thereof for the treatment of inflammatory disorders” (Galapagos NV, priority 2017, dated 2023).

The target of assay [1] is T1, Recombinant human TYK2 catalytic domain (amino acids 871-1187) (Homo sapiens, UniProt P29597).
T1 construct: catalytic domain (amino acids 871-1187)
T1 sequence (P29597 871-1187): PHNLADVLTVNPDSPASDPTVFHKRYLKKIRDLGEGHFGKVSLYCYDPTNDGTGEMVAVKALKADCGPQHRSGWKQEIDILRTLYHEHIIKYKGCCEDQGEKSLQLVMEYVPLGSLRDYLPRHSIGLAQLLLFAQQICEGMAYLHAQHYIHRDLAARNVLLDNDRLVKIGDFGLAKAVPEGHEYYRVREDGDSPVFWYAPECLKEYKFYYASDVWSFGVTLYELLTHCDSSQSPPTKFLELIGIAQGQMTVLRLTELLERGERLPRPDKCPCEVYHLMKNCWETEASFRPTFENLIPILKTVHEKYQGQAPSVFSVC
Nature of the assay: TYK2 radioactive assay polyGT substrate. Also: 0.1 µM ATP. It is filed as biochemical. The method, then:
After 120 min at 30° C., reactions were stopped by adding 25 μL/well of 150 mM phosphoric acid. […] Plates were washed 6 times with 300 μL per well of a 75 mM phosphoric acid solution and the bottom of the plates is sealed. […] Kinase activity is calculated by subtracting counts per min (cpm) obtained in the presence of a positive control inhibitor (10 μM staurosporine) from cpm obtained in the presence of vehicle. The ability of a test compound to inhibit this activity (or percentage inhibition) is determined as: […]
cpm test compound=cpm determined for sample with test compound present cpm control=cpm determined for sample with positive control inhibitor cpm vehicle=cpm determined in the presence of vehicle
Dose dilution series were prepared for the compounds enabling the testing of dose-response effects in the TYK2 assay and the calculation of the IC50 for each compound. Each compound is routinely tested at concentration of 20 μM followed by a 1/5 serial dilution, 10 points in a final concentration of 1% DMSO.

Assay [2] concerns IL-12 activation of STAT4 in NK-92 cells. Nature of the assay: IL-12 activation of STAT4 in NK-92 cells using AphaLISA SureFire technology. It is filed as cell-based. Particulars: Homo sapiens, NK92; IL-12 activation of STAT4 in NK-92 cells, AlphaLISA SureFire; average IC50; read-out: IL12 pSTAT4 IC50. The method, then: IL-2 is added freshly to the medium with each medium refreshment step. Cells are cultured in a humidified incubator at 37° C. 5% CO2.
A subcultured fraction of NK-92 cells is washed once in culture medium without rhIL-2 the day before the experiment and incubated overnight in a culture flask.
5% CO2. […] NK-92 cells are triggered with rhIL-12 for 30 min at 37° C. 5% CO2.
After 30 min of cytokine stimulation the cells are lysed by addition of 15 μL 5× lysis buffer (supplemented with the AlphaLISA kit). After 10 minutes, plates are frozen at −80° C. overnight and the next day the levels of phospho-STAT4 are quantified using the AlphaLISA SureFire ULTRA p-STAT4 (Tyr693) (Perkin Elmer, Catalogue number ALSU-PST4-A10K) according to the manufacturers instructions. AlphaLISA signal (relative light units) is measured using an Envision (Perkin Elmer).
(§1) The percentage inhibition is calculated as: […]
RLU(trigger/veh): Relative lumescent signal determined in presence of vehicle and trigger
RLU(test compound): Relative luminescent signal determined in presence of test compounds and trigger
PIN values are plotted for compounds tested in dose-response and IC50 values are derived using GraphPad Prism Software applying non-linear regression (sigmoidal) curve fitting. The data are expressed as the average IC50 from different experiments.

Assay [3] concerns IFNα activation of STAT1 in PBMC. Put plainly: IFNα activation of STAT1 in PBMC. It is filed as cell-based. Particulars: Homo sapiens; IFNα activation of STAT1 in PBMC; average IC50; read-out: IFNα signaling inhibitory potency IC50. Here is the method:
After these 2 wash steps the cell pellet is dissolved in ammonium chloride buffer (1.5 M NH4Cl, 100 mM NaHCO3 and 10 mM Na2.EDTA) for lysis of the red blood cells.
PBMC are treated with test compound for 30 min at 37° C. 5% CO2. […] After 30 min of test compound/vehicle pre-treatment, PBMC are stimulated for 30 min at 37° C. 5% CO2 with recombinant human IFNα (PeproTech, catalog number 300-02A) at a final concentration of 5 ng/mL by addition of 20 μL (10× concentrated) cytokine trigger to obtain a final volume of 200 μL per well.
After 30 min of cytokine stimulation, 200 μL of cell suspension is transferred to a 96-well V-bottom plate, centrifugated for 5 min at 1000 rpm to pellet cells, followed by removal of supernatant.
as §1
RCLU(vehicle control): Relative Chemiluminescent signal determined in presence of vehicle and trigger
RCLU(test compound): Relative Chemiluminescent signal determined in presence of test compounds and trigger
RCLU(positive control): Relative Chemiluminescent signal determined in presence of positive control and trigger
PIN values are plotted for compounds tested in dose-response and average IC50 values are derived using GraphiPad Prism Software applying non-linear regression (sigmoidal) curve fitting.

Where a name gives a salt, the structure may show the parent alone.

Take `Cc1cc(C#N)ncc1Oc1cc(Nc2ccc(C(=O)N3C[C@@H](C)O[C@H](C)C3)cn2)c2ncn(C)c2n1` (racemic) [Compound 149, 4-methyl-5-[3-methyl-7-[[5-[rac-(2R,6R)-2,6-dimethylmorpholine-4-carbonyl]pyridin-2-yl]amino]imidazo[4,5-b]pyridin-5-yl]oxypyridine-2-carbonitrile]: the IC50 in assay [1] was 3.66 nM; in assay [2], 347 nM; in assay [3] it was 218 nM.

As to `CCc1cc(C#N)ncc1Oc1cc(Nc2ccc(C(=O)N3CCOCC3)cn2)c2ncn(C)c2n1` [Compound 7, 4-Ethyl-5-{3-methyl-7-[5-(morpholine-4-carbonyl)-pyridin-2-ylamino]-3H-imidazo[4,5-b]pyridin-5-yloxy}-pyridine-2-carbonitrile], the IC50 in assay [1] worked out at 0.59 nM; in assay [2], 133 nM; in assay [3], 49 nM.

Regarding `Cc1cc(C#N)ncc1Oc1cc(Nc2ccc(N3CC(CN(C)C)C3)nn2)c2ncn(C)c2n1` [Compound 40, 5-{7-[6-(3-Dimethylaminomethyl-azetidin-1-yl)-pyridazin-3-ylamino]-3-methyl-3H-imidazo[4,5-b]pyridin-5-yloxy}-4-methyl-pyridine-2-carbonitrile], the IC50 in assay [1] came to 9.69 nM; in assay [2], 3530 nM; in assay [3], 115 nM.

Regarding `Cc1cc(C#N)ncc1Oc1cc(Nc2ccc(N3C[C@@H](C)O[C@@H](C)C3)nn2)c2ncn(C)c2n1` [Compound 43, (±)-5-{7-[6-((2R,6S)-2,6-Dimethyl-morpholin-4-yl)-pyridazin-3-ylamino]-3-methyl-3H-imidazo[4,5-b]pyridin-5-yloxy}-4-methyl-pyridine-2-carbonitrile], the results for the 50% inhibitory concentration (IC50) in assay [1], in assay [2] and in assay [3] were 1.58 nM, 49 nM and 70 nM, respectively.

On to `Cc1cc(C#N)ncc1Oc1cc(Nc2ccc(N3CCO[C@@H](C)C3)nn2)c2ncn(C)c2n1` [Compound 44, 4-Methyl-5-{3-methyl-7-[6-((S)-2-methyl-morpholin-4-yl)-pyridazin-3-ylamino]-3H-imidazo[4,5-b]pyridin-5-yloxy}-pyridine-2-carbonitrile], for which the half-maximal inhibitory concentration (IC50) in assay [1] came out at 1.97 nM; in assay [2], 50 nM; in assay [3], 79 nM.

Consider `Cc1cc(C#N)ncc1Oc1cc(Nc2ccc(C(=O)N3CCN(C(C)C)CC3)cn2)c2ncn(C)c2n1` [Compound 46, 4-methyl-5-[3-methyl-7-[[5-(4-propan-2-ylpiperazine-1-carbonyl)pyridin-2-yl]amino]imidazo[4,5-b]pyridin-5-yl]oxypyridine-2-carbonitrile], for which the 50% inhibitory concentration (IC50) in assay [1] is 1.47 nM; in assay [2], 210 nM; in assay [3] it was 76 nM.

In the case of `Cc1cc(C#N)ncc1Oc1cc(Nc2ccc(C(=O)N3CCN(C4CCC4)CC3)cn2)c2ncn(C)c2n1` [Compound 47, 5-[7-[[5-(4-cyclobutylpiperazine-1-carbonyl)pyridin-2-yl]amino]-3-methylimidazo[4,5-b]pyridin-5-yl]oxy-4-methylpyridine-2-carbonitrile], the IC50 was 2.02 nM in assay [1], 84 nM in assay [2] and 52 nM in assay [3].

On to `Cc1cc(C#N)ncc1Oc1cc(Nc2ccc(N3CCN(C)CC3)cn2)c2ncn(C)c2n1` [Compound 50, 4-methyl-5-[3-methyl-7-[[5-(4-methylpiperazin-1-yl)pyridin-2-yl]amino]imidazo[4,5-b]pyridin-5-yl]oxypyridine-2-carbonitrile], for which the IC50 in assay [1] came to 5.54 nM; in assay [2], 248 nM; in assay [3], 95 nM.

Turning to `Cc1cc(C#N)ncc1Oc1cc(Nc2ccc(CN3CCOCC3)cn2)c2ncn(C)c2n1` [Compound 82, 4-methyl-5-[3-methyl-7-[[5-(morpholin-4-ylmethyl)pyridin-2-yl]amino]imidazo[4,5-b]pyridin-5-yl]oxypyridine-2-carbonitrile formate salt], the IC50 in assay [1] was 8.15 nM; in assay [2], 195 nM; in assay [3], 126 nM.

Take `Cc1cc(C#N)ncc1Oc1cc(Nc2ccc(OC3CN(C)C3)nn2)c2ncn(C)c2n1` [Compound 90, 4-methyl-5-[3-methyl-7-[[6-(1-methylazetidin-3-yl)oxypyridazin-3-yl]amino]imidazo[4,5-b]pyridin-5-yl]oxypyridine-2-carbonitrile]: the IC50 in assay [1] is 12.4 nM; in assay [2], 1520 nM; in assay [3], 288 nM.

`Cc1cc(C#N)ncc1Oc1cc(Nc2ccc(C(=O)N3CC(O)C3)cn2)c2ncn(C)c2n1` [Compound 96, 5-[7-[[5-(3-hydroxyazetidine-1-cabonyl)-2-pyridyl]amino]-3-methyl-imidazo[4,5-b]pyridin-5-yl]oxy-4-methyl-pyridine-2-carbonitrile]: the IC50 was 2.51 nM in assay [1], 358 nM in assay [2] and 73 nM in assay [3].

On to `COC1CN(C(=O)c2ccc(Nc3cc(Oc4cnc(C#N)cc4C)nc4c3ncn4C)nc2)C1` [Compound 103, 5-[7-[[5-(3-methoxyazetidine-1-carbonyl)-2-pyridyl]amino]-3-methyl-imidazo[4,5-b]pyridin-5-yl]oxy-4-methyl-pyridine-2-carbonitrile], for which the half-maximal inhibitory concentration (IC50) in assay [1] was 2.73 nM; in assay [2], 63.5 nM; in assay [3], 68 nM.

Consider `COCC1CN(C(=O)c2ccc(Nc3cc(Oc4cnc(C#N)cc4C)nc4c3ncn4C)nc2)C1` [Compound 104, 5-[7-[[5-[3-(methoxymethyl)azetidine-1-carbonyl]-2-pyridyl]amino]-3-methyl-imidazo[4,5-b]pyridin-5-yl]oxy-4-methyl-pyridine-2-carbontrile], for which the results for the IC50 in assay [1], in assay [2] and in assay [3] were 2.88 nM, 108 nM and 65 nM, respectively.

As for `Cc1cc(C#N)ncc1Oc1cc(Nc2ccc(C(=O)N3CC[C@@H](N(C)C)C3)cn2)c2ncn(C)c2n1` [Compound 107, 5-[7-[[5-[(3R)-3-(dimethylamino)pyrrolidine-1-carbonyl]pyridin-2-yl]amino]-3-methylimidazo[4,5-b]pyridin-5-yl]oxy-4-methylpyridine-2-carbonitrile], the 50% inhibitory concentration (IC50) in assay [1] turned out to be 5.44 nM; in assay [2] it was 622 nM; in assay [3], 110 nM.

Consider `Cc1cc(C#N)ncc1Oc1cc(Nc2ccc(C(=O)N3CC(O)(C4CC4)C3)cn2)c2ncn(C)c2n1` [Compound 113, 5-[7-[[5-(3-cyclopropyl-3-hydroxy-azetidine-1-carbonyl)-2-pyridyl]amino]-3-methyl-imidazo[4,5-b]pyridin-5-yl]oxy-4-methyl-pyridine-2-carbonitrile], for which the half-maximal inhibitory concentration (IC50) in assay [1] was determined as 2.05 nM; in assay [2] it was 190 nM.

Regarding `Cc1cc(C#N)ncc1Oc1cc(Nc2ccc(C(=O)N3CCOC[C@H]3C)cn2)c2ncn(C)c2n1` [Compound 146, 4-methyl-5-[3-methyl-7-[[5-[(3R)-3-methylmorpholine-4-carbonyl]pyridin-2-yl]amino]imidazo[4,5-b]pyridin-5-yl]oxypyridine-2-carbonitrile], the 50% inhibitory concentration (IC50) stood at 1.15 nM in assay [1] and 122 nM in assay [3].
